Laboratory results reported in paper PMC12040169 (PLOS Biology, 2025).

assay: in vitro; conditions: human, hela cells, % viability

| SMILES | viability at 28.5 h, 10 µM [%] |
| --- | --- |
| COc1cc(C)c(CN2CCN(C(=O)COc3cc4ccccc4cc3C(=O)O)CC2)cc1OC [CBK296968] | 99.6 |
| CCCn1c(SCc2csc(CC(=O)Nc3ccccc3C)n2)n[nH]c1=O [CBK296969] | 91.1 |
| CCCCc1ccc(N2C(=O)CC(Nc3ccc(C(=O)O)cc3)C2=O)cc1 (stereo not shown) [CBK296972] | 108 |
| COc1cc(-c2nnc(CSc3nc4sc(C(=O)O)c(C)c4c(=O)[nH]3)o2)cc(OC)c1OC [CBK296973] | 91 |
| O=C(O)CCC(=O)Nc1cccc(C(=O)Nc2cccc(Cl)c2)c1 [CBK296977] | 89.8 |
| Cc1ccc(Sc2ncccc2C(=O)Nc2ccnn2Cc2cccnc2)cc1C [CBK296980] | 109 |
| COc1ccc(OC)c(-n2c(SCC(=O)N3CCC(C(=O)O)CC3)nc3ccccc3c2=O)c1 [CBK296981] | 87.5 |
| CSCCC(C(=O)O)N1C(=O)C(=Cc2ccc(-c3cccc(Cl)c3)o2)SC1=S (stereo not shown) [CBK296982] | 99.3 |
| CCCC(C(=O)O)N1C(=O)C(=Cc2ccc(-c3ccc(C(=O)OCC)cc3)o2)SC1=S (stereo not shown) [CBK296983] | 80.6 |
| CCC(C(=O)O)N1C(=O)C(=Cc2ccc(-c3ccccc3C(F)(F)F)o2)SC1=S (stereo not shown) [CBK296985] | 99.4 |
| COc1cc(C=CC(=O)O)ccc1OCC(=O)N1CCN(CC(=O)NC(C)(C)C)CC1 [CBK296987] | 114 |
| O=C(O)c1cc(C=Cc2cn(Cc3ccccc3)nc2-c2cccnc2)nc2ccccc12 [CBK296988] | 105 |
| Cc1c(C(=O)O)sc2nc(SCC(=O)Nc3ccc(OCc4ccccc4)cc3)[nH]c(=O)c12 [CBK296992] | 88.5 |
| Cc1cc(C(C)(C)C)cc(C)c1COC(=O)c1ccncc1 [CBK296995] | 112 |
| CC(=O)Nc1cccc(NC(=O)c2cc(-c3ccccc3)nn2-c2ccccc2)c1 [CBK296997] | 90.1 |
| C[C@H](NC(=O)Cc1ccc(-c2ccccc2)cc1)c1nc2ccccc2[nH]1 [CBK296998] | 98.5 |
| CC1=C(C(=O)N2CCOCC2)C(c2ccc(Cl)cc2)NC(=O)N1c1ccc(C(=O)O)cc1 (stereo not shown) [CBK296999] | 93.1 |
| CS(=O)(=O)N1CCc2cc(C(=O)Cn3nc(C(=O)O)c4ccccc4c3=O)ccc21 [CBK297000] | 80.4 |
| CC(NC(=O)c1ccccc1)C(=O)OCn1nnc2ccccc2c1=O (stereo not shown) [CBK297001] | 92 |

| SMILES | viability at 28.5 h, 10 µM [%] |
| --- | --- |
| Cc1nc2cc(NC(=O)Cc3c(C)nc4ccccc4c3C)ccc2o1 [CBK297083] | 110 |
| CC(=O)Nc1ccc(-c2csc(NC(=O)NS(=O)(=O)c3ccc(C)cc3)n2)cc1 [CBK297084] | 107 |
| Cc1ccc(C(CC(=O)O)NC(=O)c2ccc(C)c(S(=O)(=O)N3CCCCC3)c2)cc1 (stereo not shown) [CBK297095] | 82.7 |
| CC1CCN(S(=O)(=O)c2ccc(C(=O)N3CCC(C(=O)O)CC3)cc2)CC1 [CBK297097] | 105 |
| O=C(O)c1cc(S(=O)(=O)Nc2ccc(OCc3ccccc3)cc2)ccc1Br [CBK297098] | 113 |
| CC(C)(C)c1cc(NC(=O)CSc2ccc(S(=O)(=O)N3CCCC3)cn2)n(-c2ccccc2)n1 [CBK297099] | 89 |
| O=C(Cn1cnc2sc(-c3ccccc3)cc2c1=O)c1ccc2c(c1)OCO2 [CBK297102] | 87 |
| Nc1nc(N)nc(CSc2ncc(-c3ccccc3)n2-c2ccccc2)n1 [CBK297103] | 85.9 |
| Cc1cc(C(=O)C(C)Oc2ccc(-c3nnco3)cc2)c(C)n1-c1ccccc1 (stereo not shown) [CBK297104] | 101 |
| CS(=O)(=O)Cc1cccc(C(=O)Nc2ccc(Oc3ccccc3)cc2)c1 [CBK297111] | 87.5 |
| O=C(O)CC(=Cc1csc(-c2ccc(Cl)cc2)n1)c1nc2ccccc2o1 [CBK297112] | 104 |
| CC1(CCc2ccccc2)NC(=O)N(CC(=O)c2ccc(-c3ccccc3)cc2)C1=O (stereo not shown) [CBK297114] | 107 |
| O=C(C1CN(C(=O)Cn2ncc(=O)c3ccccc32)c2ccccc2O1)N1CCCCC1 (stereo not shown) [CBK297115] | 93.5 |
| CC[C@H](C)[C@H](NC(=O)C1CCN(S(=O)(=O)c2ccc(Cl)c(C(F)(F)F)c2)CC1)C(=O)O [CBK297117] | 91.5 |
| Cc1c(C(=O)O)sc(S(=O)(=O)N2CCN(C(=O)c3ccc(C(C)(C)C)cc3)CC2)c1C(=O)O [CBK297119] | 85.1 |
| Cc1c(C(=O)O)sc(S(=O)(=O)N2CCN(C(=O)CCC3CCCC3)CC2)c1C(=O)O [CBK297121] | 117 |
| Cc1cccc(C(=O)N2CCN(S(=O)(=O)c3sc(C(=O)O)c(C)c3C(=O)O)CC2)c1 [CBK297124] | 91.4 |
| CCS(=O)(=O)N1CCc2cc(C(=O)CSc3nnc(-c4ccco4)o3)ccc21 [CBK297126] | 98.3 |
| Cc1c(C(=O)O)sc(S(=O)(=O)N2CCN(C(=O)CCc3cccs3)CC2)c1C(=O)O [CBK297135] | 105 |

| SMILES | viability at 28.5 h, 10 µM [%] |
| --- | --- |
| O=C(O)c1cn(C2CC2)c2cc(N3CCN(C(=O)Cc4ccccc4Cl)CC3)c(F)cc2c1=O [CBK297136] | 90.4 |
| CCC(C)C(NC(=O)C1CCN(S(=O)(=O)c2ccc(OC)c(OC)c2)CC1)C(=O)O (stereo not shown) [CBK297140] | 90.7 |
| CC(C)OCc1ccc(C(=O)N2CCC(C(=O)O)CC2)cc1 [CBK297141] | 83.2 |
| CC(Sc1nc(C2CC2)n(-c2ccccc2)n1)C(=O)N1CCNC1=O (stereo not shown) [CBK297144] | 97.2 |
| Cc1ccccc1C(=O)N1CCN(S(=O)(=O)c2sc(C(=O)O)c(C)c2C(=O)O)CC1 [CBK297146] | 102 |
| Cc1c(C(=O)O)sc(S(=O)(=O)N2CCN(C(=O)Cc3ccccc3)CC2)c1C(=O)O [CBK297148] | 96.2 |
| Cc1ccc(C(=O)N2CCN(S(=O)(=O)c3sc(C(=O)O)c(C)c3C(=O)O)CC2)s1 [CBK297150] | 84.8 |
| Cc1ccc(OCC(=O)N2CCN(C(=O)c3cccs3)CC2)c([N+](=O)[O-])n1 [CBK297152] | 94.4 |
| CC(=O)c1ccc(OCc2nc(N)nc(Nc3ccccc3)n2)cc1 [CBK297155] | 83.1 |
| COc1ccc(-c2cc3ncnc(Sc4nnnn4CC4CCCO4)c3s2)cc1 (stereo not shown) [CBK297157] | 95.9 |
| O=C(CSc1nnnn1C1CC1)c1cc2ccccc2o1 [CBK297158] | 90.7 |
| O=C(O)c1c2c(nc3ccccc13)C(=Cc1ccc3c(c1)OCCO3)CC2 [CBK297479] | 96.3 |
| Cc1ccn2c(NS(=O)(=O)c3ccc(CCC(=O)O)cc3)c(-c3cccs3)nc2c1 [CBK297480] | 110 |
| COc1ccc(C(=O)O)cc1S(=O)(=O)Nc1c(-c2cccs2)nc2cc(C)ccn12 [CBK297484] | 82.9 |
| COc1cc(C(=O)NCC(=O)O)cc(Cl)c1OCC(C)C [CBK297485] | 80.8 |
| CCc1ccc2c(COC(=O)c3cccnc3SC)cc(=O)oc2c1 [CBK297486] | 85 |
| Nc1c(N(CCO)C(=O)C2CCCC2)c(=O)[nH]c(=O)n1Cc1ccccc1 [CBK297490] | 97.3 |
| CCCCCCn1nc(C(=O)NCC(=O)O)c2ccccc2c1=O [CBK297491] | 97.3 |
| CCOc1ccc(CN(C)C(=O)Cn2nc(C(=O)O)c3ccccc3c2=O)cc1 [CBK297492] | 83.8 |

same assay, conditions: human, hela cells, % viability, bulk resorufin, single well

| SMILES | viability at 28.5 h, 10 µM [%] |
| --- | --- |
| O=C(C1CCN(S(=O)(=O)c2cccs2)CC1)N1CCC(C(=O)O)(c2ccccc2)CC1 [CBK297147] | 88 |
